Measured values published in publication PMC9464622, “The collectin SP-A and its trimeric recombinant fragment protect alveolar epithelial cells from the cytotoxic and proinflammatory effects of human cathelicidin in vitro” (Frontiers in Immunology, 2022).

Tests used:
[1] = test system: P2X7 channels, A549 pneumocytes; type: cell-based, human; conditions: A-438079 10 µM, 15 min pre-treatment; LL-37 2.5 µM, SP-A 0.15 µM, rfhSP-A 0.88 µM, 1 hour
Description: (§1) For flow cytometry analysis, A549 cells were grown in RPMI 1640 medium supplemented with antibiotics, 2 mM L-glutamine, and 10% FBS. […] A-438079 stock was resuspended in DMSO to a final concentration of 30 mM and aliquots were stored at 4°C. Cell fluorescence was analyzed after 15, 30 and 60 minutes in a Becton-Dickinson FACS Calibur cytometer, using Cell Quest software.
(§2) The incorporation of PI in A549 and U937 cell lines was analyzed by flow cytometry. Cells were cultured 18 h in RPMI 1640 medium supplemented with antibiotics, 2 mM L-glutamine, and 10% FBS. Then, cells were harvested and incubated in PBS with 10 µg/ml PI in the presence or absence of 2.5 µM LL-37, 0.15 µM SP-A or 0.88 µM rfhSP-A, and combinations thereof. A549 were incubated at 500,000 cells/ml density and U937 at 1,000,000 cells/ml. PI incorporation was measured after 15, 30, 45 and 60 minutes by flow cytometry. In some experiments, cells were pre-treated with 1 or 10 µM A-438079 or vehicle (DMSO).

[2] = test system: P2X7 channels, U937 monocytes; type: cell-based, human; conditions: A-438079 10 µM, 15 min pre-treatment; LL-37 2.5 µM, SP-A 0.15 µM, rfhSP-A 0.88 µM, 1 hour
Description: as §1, §2

[3] = target: T1, human SP-A (Homo sapiens, UniProt Q8IWL1+Q8IWL2); assay: Binding of LL-37 to SP-A by intrinsic tryptophan fluorescence titration
T1 construct: Human SP-A was isolated from bronchoalveolar lavage fluid of patients with alveolar proteinosis; from tissue; host or cells: bronchoalveolar lavage fluid of patients with alveolar proteinosis
T1 sequence (Q8IWL2 21-248): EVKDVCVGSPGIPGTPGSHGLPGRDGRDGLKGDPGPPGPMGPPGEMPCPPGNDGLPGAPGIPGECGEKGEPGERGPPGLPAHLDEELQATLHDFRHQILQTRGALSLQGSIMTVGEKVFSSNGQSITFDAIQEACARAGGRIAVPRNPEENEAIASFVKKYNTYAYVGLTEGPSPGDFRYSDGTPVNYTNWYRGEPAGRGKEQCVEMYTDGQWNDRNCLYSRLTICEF
T1 sequence (Q8IWL1 21-248): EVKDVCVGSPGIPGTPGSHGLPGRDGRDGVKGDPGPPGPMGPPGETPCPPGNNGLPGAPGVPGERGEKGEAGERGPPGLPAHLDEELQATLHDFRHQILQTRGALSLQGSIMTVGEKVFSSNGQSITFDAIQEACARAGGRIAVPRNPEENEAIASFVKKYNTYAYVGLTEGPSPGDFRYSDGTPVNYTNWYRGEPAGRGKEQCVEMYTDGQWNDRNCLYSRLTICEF
Description: (§3) Fluorescence measurements were carried out in 5 x 5 quartz cuvettes using an SLM-Aminco AB-2 spectrofluorimeter equipped with a thermostated cuvette holder (± 0.1°C; Spectronic, Waltham, MA, USA). The slit widths were 4 nm for the excitation and emission beams. The tryptophan fluorescence emission spectrum of SP-A and rfhSP-A was recorded from 305 to 400 nm on excitation at 295 nm at 25°C in 5 mM Tris HCl buffer (pH 7.4), with or without 150 mM NaCl. Subsequently, the titration experiment was started by adding increasing amounts of LL-37 to the protein solution in the cuvette. The fluorescence intensity readings were corrected for the dilution caused by LL-37 addition.
(§4) The change in the fluorescence of SP-A (or rfhSP-A) at the emission wavelength maximum was monitored as a function of LL-37 concentration, and the titration data were analyzed by nonlinear least squares fitting to the Hill equation, as previously reported ([24], [35], [36]):
(§5) (1) ΔF/ΔFmax=[L]^nH/([L]^nH+KD)
(§6) where ΔF is the change in fluorescence intensity at 337 nm relative to the intensity of free SP-A (for free rfhSP-A, the emission wavelength maximum was 342 nm); ΔFmax is the change in fluorescence intensity at saturating LL-37 concentrations; KD is the apparent equilibrium dissociation constant; [L] is the molar concentration of free LL-37; and nH is the Hill coefficient.

[4] = test system: A549 cells; type: cell-based, human; conditions: LL-37 2.5 µM, SP-A 0.15 µM, rfhSP-A 0.88 µM, 30 min 37°C; complexes vs LL-37 alone p < 0.001
Description: (§7) Human cell lines of alveolar basal epithelium A549 (ATTC® CCL-185TM) and monocytes U937 (ATTC® CRL-1593.2TM) were incubated in RPMI 1640 supplemented with 10% (v/v) heat-inactivated fetal bovine serum (FBS), antibiotics (100 U/ml penicillin and 100 μg/ml streptomycin), and 2 mM L-glutamine (BioWhittacker).
(§8) Incorporation of Sytox Green in A549 cells was analyzed by confocal microscopy and flow cytometry analysis.
For confocal microscopy analysis, cells were seeded to a density of 30,000 cells per well in a 24-well tissue culture plate for 18 h in RPMI 1640 tissue culture medium supplemented with 100 U/ml penicillin, 100 μg/ml streptomycin, 2 mM L-glutamine, and with 5% FBS. The following day, Sytox Green (1 µM, final concentration) was added to the wells 10 minutes before the addition of 2.5 µM (11.25 µg/ml) LL-37 and/or 0.15 µM (100 µg/ml) SP-A or 0.88 µM (50 µg/ml) rfhSP-A for an additional 30 minutes. At the end of the incubation, fluorescence and differential interference contrast micrographs were taken under an Olympus FV1200 confocal system. Quantification of permeabilized cells (Sytox Green+) per cell number was performed using Image J software on each of 12 micrographs per treatment and experiment.

[5] = test system: A549 cells; assay: Propidium iodide uptake, A549; type: cell-based, human; conditions: LL-37 2.5 µM, SP-A 0.15 µM, rfhSP-A 0.88 µM, 15-60 min, 37°C, flow cytometry
Description: as §7, §2

[6] = test system: A549 cells; type: cell-based, human; conditions: LL-37 2.5 µM, SP-A 0.15 µM, rfhSP-A 0.88 µM, 15-60 min 37°C; complexes vs LL-37 alone p < 0.001
Description: as §7, §8, §1

[7] = target: T2, rfhSP-A (recombinant trimeric fragment of human SP-A) (Homo sapiens, UniProt Q8IWL2); assay: Binding of LL-37 to rfhSP-A by intrinsic tryptophan fluorescence titration
T2 construct: including the globular carbohydrate recognition domain (CRD), neck, and 8 x Gly-Xaa-Yaa repeats of the collagen stalk; His6 (N, cleaved yes); NT* solubility tag (spider silk) with coxsackievirus 3C protease site (N, cleaved yes); made in house; host or cells: Escherichia coli BL21 (DE3)
T2 sequence (Q8IWL2 77-248 limits assumed): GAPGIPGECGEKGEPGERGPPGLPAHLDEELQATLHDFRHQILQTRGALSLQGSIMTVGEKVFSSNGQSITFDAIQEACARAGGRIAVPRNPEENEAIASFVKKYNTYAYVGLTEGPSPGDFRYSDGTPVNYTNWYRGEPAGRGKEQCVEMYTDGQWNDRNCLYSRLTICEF
Description: as §3, §4, §5, §6

[8] = test system: U937 cells; assay: Propidium iodide uptake, U937; type: cell-based, human; conditions: LL-37 2.5 µM, SP-A 0.15 µM, rfhSP-A 0.88 µM, 15-60 min, 37°C, flow cytometry
Description: as §7, §2

CC[C@H](C)[C@H](NC(=O)[C@H](CCCCN)NC(=O)[C@H](CCC(=O)O)NC(=O)[C@H](CCCCN)NC(=O)[C@H](CO)NC(=O)[C@H](CCCCN)NC(=O)[C@H](CCCNC(=N)N)NC(=O)[C@H](Cc1ccccc1)NC(=O)[C@H](Cc1ccccc1)NC(=O)[C@H](CC(=O)O)NC(=O)CNC(=O)[C@H](CC(C)C)NC(=O)[C@@H](N)CC(C)C)C(=O)NCC(=O)N[C@@H](CCCCN)C(=O)N[C@@H](CCC(=O)O)C(=O)N[C@@H](Cc1ccccc1)C(=O)N[C@@H](CCCCN)C(=O)N[C@@H](CCCNC(=N)N)C(=O)N[C@H](C(=O)N[C@H](C(=O)N[C@@H](CCC(N)=O)C(=O)N[C@@H](CCCNC(=N)N)C(=O)N[C@H](C(=O)N[C@@H](CCCCN)C(=O)N[C@@H](CC(=O)O)C(=O)N[C@@H](Cc1ccccc1)C(=O)N[C@@H](CC(C)C)C(=O)N[C@@H](CCCNC(=N)N)C(=O)N[C@@H](CC(N)=O)C(=O)N[C@@H](CC(C)C)C(=O)N[C@H](C(=O)N1CCC[C@H]1C(=O)N[C@@H](CCCNC(=N)N)C(=O)N[C@H](C(=O)N[C@@H](CCC(=O)O)C(=O)N[C@@H](CO)C(=O)O)[C@@H](C)O)C(C)C)[C@@H](C)CC)C(C)C)[C@@H](C)CC [LL-37]
LL-37-induced dye uptake with / without P2X7 inhibitor, A549 [1]: partially mediated by activation of P2X7 channels | LL-37-induced dye uptake with / without P2X7 inhibitor, U937 [2]: partially mediated by activation of P2X7 channels | Kd [3]: 0.45 ± 0.01 nM | Sytox Green incorporation, A549, confocal [4]: induced Sytox Green incorporation in human pneumocytes | PI uptake, A549 pneumocytes [5]: induced significant PI incorporation into human cells as a function of time | Sytox Green incorporation, A549, flow cytometry [6]: induced Sytox Green incorporation in human pneumocytes | Kd [7]: 1.2 ± 0.7 nM | PI uptake, U937 monocytes [8]: induced significant PI incorporation into human cells as a function of time
